Experimental data: paper PMC7468108 (Communications Biology, 2020)

Tests used:
Aβ42 = target: T1, Aβ42 (Homo sapiens, UniProt P05067); assay: TEM of Aβ42 fibrils formed with the tested molecules; conditions: 5-fold excess of compound
T1 construct: purchased rPeptide (USA)
Method: These fibrils also generated the amyloid specific gold-green birefringence upon staining with Congo red (Fig. 3, bottom panel and Supplementary Fig. 6)[74].
Samples (10 µL) were placed for 2 min on 400-mesh copper grids covered with carbon-stabilized Formvar film (Electron Microscopy Sciences (EMS), Hatfield, PA). Excess fluid was removed, and grids were negatively stained with 2% uranyl acetate solution (10 µL) for 2 min. After excess fluid removal, the samples were visualized using a JEM-1400 TEM (JEOL), operated at 80 kV.

hIAPP = target: T2, hIAPP (Homo sapiens, UniProt P10997); assay: Congo red birefringence of hIAPP fibrils formed with the tested molecules; conditions: 5-fold molar excess of compound
T2 construct: hIAPP is a 37-amino acid neuroendocrine peptide hormone; purchased Peptide 2.0 (USA)
T2 sequence (P10997 34-70 limits assumed): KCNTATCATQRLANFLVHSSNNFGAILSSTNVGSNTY
Method: When hIAPP was incubated with 5-fold molar excess of the hybrid molecules, no typical fibrillar assemblies were observed, rather some amorphous aggregates of different sizes were detected (Fig. 4, upper panel).

[1] = test system: HEK-293 cells exposed to pre-formed hIAPP fibrils; assay: XTT assay, reduction of hIAPP-induced cytotoxicity in HEK-293; assay type: cell-based; conditions: Homo sapiens
Method: The peptide assemblies were then incubated for further 24 h with SH-SY5Y or HEK-293 cells and cell viability was monitored by XTT assay (Fig. 9). […] The mixtures were then independently applied to the respective cells for 24 h, and cell viability was further measured by XTT assay (Fig. 10a).
The SH-SY5Y and HEK-293 cell lines (2 × 10^5 cells/mL) were cultured in 96-well tissue microplates (100 µL/well) and allowed to adhere overnight at 37 °C. The conjugate molecules were dissolved in DMEM:nutrient mixture F12 (Ham’s) (1:1) (Biological Industries, Israel) at different concentrations. The negative control was prepared as medium without hybrid molecules and treated in the same manner. 100 µL of medium with or without hybrid molecules were added to each well in triplicate. Following incubation for 24 h at 37 °C, cell viability was evaluated using the 2,3-bis(2-methoxy-4-nitro-5-sulfophenyl)-2H-tetrazolium-5-carboxanilide (XTT) cell proliferation assay kit (Biological Industries, Israel) according to the manufacturer’s instructions. Briefly, 100 µL of activation reagent was added to 5 mL of XTT reagent, followed by the addition of 50 µL of activated-XTT solution to each well. After 2 h incubation at 37 °C, color intensity was measured using an ELISA microplate reader at 450 nm and 630 nm. Results are presented as mean and mean standard error. Each experiment was repeated minimum three times.
For the quantitative data derived from ThT and XTT assays, statistical significance, expressed as p-value, was determined using Student’s t-test calculation applied at the end of the experiments, setting tails to 2 (tailed distribution) and type to 2 (samples equal variance), according to reported methods. From the XTT viability assays, EC50 and Emax values were determined from the dose-response curves of each tested molecule using non-linear least-square data fitting, according to literature.

T1 sequence (P05067 672-713 limits assumed): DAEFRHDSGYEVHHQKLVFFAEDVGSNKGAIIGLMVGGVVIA

## NC(Cc1c[nH]c2ccccc12)C(=O)NC(Cc1c[nH]c2ccccc12)C(=O)O (stereo not shown) [WW]
Aβ42
  Aβ42 fibril morphology (TEM), in words: did not display any effect
hIAPP
  Congo red birefringence of hIAPP, in words: clear gold-green birefringence
[1]; HEK293, hIAPP (10 µM) : molecule 1:1, HEK-293 cells, normalized XTT data
  viability at 10 µM: 55.2%
[1]; HEK293, hIAPP (10 µM) : molecule 1:5, HEK-293 cells, normalized XTT data
  viability at 50 µM: 57.7%
[1]; HEK293, hIAPP (10 µM) : molecule 1:20, HEK-293 cells, normalized XTT data
  viability at 200 µM: 58.5%
[1]; HEK293, hIAPP (10 µM) : molecule 5:1, HEK-293 cells, normalized XTT data
  viability at 2 µM: 55.6%
[1]; HEK293, reduction of cytotoxicity of pre-formed hIAPP fibrils 10 µM, HEK-293
  EC50: 10 µM
